# Values of other authors, collected in US20240335441A1, “METHOD OF TREATING POSTTRAUMATIC STRESS DISORDER” (Jazz Pharmaceuticals Ireland Limited, priority 2021, published 2024).
# Columns and labels:
# [1] = tested on: men with cannabis use disorder (CUD); settings: compared to placebo
# healthy volunteers = settings: placebo-controlled
structure (smiles),measurement,setting,value
"O=C(Nc1cccnn1)N1CCC(=Cc2cccc(Oc3ccc(C(F)(F)F)cn3)c2)CC1 [Compound A, N-Pyridazin-3-yl-4-{3-[5-(trifluoromethyl)-2-pyridyloxy]benzylidene}piperidine-1-carboxamide]",self-reported overall sleep,[1],improved
same,slow wave sleep as measured by polysomnography,[1],significantly increased
same,negative affect in response to an aversive stimulus,healthy volunteers,blunted
same,recall of fear extinction memory,healthy volunteers,enhanced
